{"source": "patent US10400274B2", "about": "“Fluorogenic probes and their use in quantitative detection of target RNA sequences” (JAN BIOTECH, INC., priority 2016, dated 2019)", "key": {"[1]": {"test_system": "synthetic HIV RNA targets", "experiment": "qLDR probe set testing against synthetic HIV RNA targets", "conditions": "initial testing with synthetic HIV RNA targets", "protocol": "The qLDR reaction contained optimized probe concentrations at 10-100 pM and a total reaction volume of 50 μL. The qLDR reaction for each probe set was optimized against the commensurate synthetic HIV RNA targets using fluorescence microscopy and fluorescence emission in a 96-well format in a desktop fluorometer, with readings normalized to background."}, "HIV RNA of ACH-2 cells": {"test_system": "HIV RNA of ACH-2 cells", "experiment": "HIV qLDR on PMA-activated ACH-2 cells in A3.01 cells (latent vs. active)", "format": "cell-based", "conditions": "10 ACH-2 cells in 10^6 A3.01 cells; PMA 1 μM for 0, 3, 8, 24 hr; FIG. 9", "protocol": "For cell line testing (FIG. 9), ACH-2 and A3.01 cells were grown in T-75 flasks and plated at 1 mL per well in a 24-well culture plate in RPMI medium. After the wells reached 60% confluency, cells were activated for 0, 3, 8, and 24 hr with PMA (phorbal 12-myristate 13-acetate) at 1 μM final concentration per well. The experiment was performed such that each activation time endpoint represented the same total growth time. The activated ACH-2 cells were harvested from each well and counted. After preservation and shipping in 90% FBS/10% DMSO at −80° C., the cell suspensions were recounted, diluted and added at 10 cells into 10^6 A3.01 cells activated for the matching time period. HIV qLDR, using probes SEQ ID NO: 9/SEQ ID NO: 10 for 2 kb tat-rev transcripts, SEQ ID NO: 1/SEQ ID NO: 2 for 9 kb transcripts, and SEQ ID NO: 1/SEQ ID NO: 2 and SEQ ID NO: 5/SEQ ID NO: 6 for 4 kb transcripts, was performed on the cells and fluorometric readings in a 96-well plate format were normalized to background. […] Thus, the ratio of cell-based tat-rev to 4 kb/9 kb HIV RNA levels may be a useful measure of latent to active cell number."}, "HIV pol/protease region": {"test_system": "HIV pol/protease region", "experiment": "HIV qLDR compared with HIV RT-qPCR on human peripheral blood samples", "format": "cell-based", "conditions": "CD4+ T cells for qLDR, blood plasma for RT-qPCR; FIG. 11", "protocol": "For human sample testing comparison with HIV RT-qPCR (FIG. 11), blood plasma was used for RT-qPCR and CD4+ T cells were used for qLDR. RT-qPCR was performed using primers and probe to the HIV gag-pol region, as described in Livak et al., 1995, for best comparison with HIV qLDR with probes SEQ ID NO: 1/SEQ ID NO: 2 to the HIV pol/protease region. HIV RNA was isolated from blood plasma samples prior to RT-qPCR. An RT-qPCR standard was prepared by in vitro transcription of a synthetic HIV T7 plasmid, and RNA copy number was determined using a standard curve generated with the RT-qPCR standard."}, "cellular HIV RNA": {"test_system": "cellular HIV RNA", "experiment": "HIV qLDR on CD4-enriched PBMC lysates from HIV- and HIV+ participants", "format": "cell-based, human", "conditions": "FIG. 10a-b; for detection of cellular HIV RNA in HIV+ HAART (latent) samples / detection of cellular HIV RNA in HIV- samples: CD4-enriched PBMC lysates, 20 mL blood; for detection between latent and HIV+ non-HAART (active) samples: including viremic participants and elite controllers", "protocol": "For human sample testing (FIG. 10a-b) by HIV qLDR, CD4-enriched PBMC from HIV− and HIV+ participants were tested by the HIV qLDR probes SEQ ID NO: 9/SEQ ID NO: 10 for 2 kb tat-rev transcripts and SEQ ID NO: 5/SEQ ID NO: 6 for 9 kb and 4 kb transcripts. Lysates were tested from five individuals/class. Tests were performed in triplicate with 20 mL blood."}}}
{"substance": "SEQ ID NO: 1/SEQ ID NO: 2: fluorogenic probe pair SEQ ID NO: 1 (Ald-1) and 2 (Ind), HIV-1 pol/protease, detects full length 9 kb RNA (chain 1 CCTGTATCTAATAGAGC; chain 2 TCTAATACTGTATCATCT; fluorogenic labels; Latent HIV-1 qLDR Oligonucleotide Probe; (1)..(1) Fluorogenic probe moiety attachment position on probe sequence; (18)..(18) Fluorogenic probe moiety attachment position on probe sequence)", "values": [{"measurement": "detection efficiency", "setting": "[1]", "value": "comparable detection efficiency"}, {"measurement": "change of fluorescence level through activation time course", "setting": "HIV RNA of ACH-2 cells", "value": "marked increase"}, {"measurement": "correlation of HIV qLDR results with HIV RT-PCR viremia results", "setting": "HIV pol/protease region", "value": "closely correlated"}]}
{"substance": "SEQ ID NO: 5/SEQ ID NO: 6: fluorogenic probe pair SEQ ID NO: 5 (Ald-2) and 6 (Ind), HIV-1 gp160/41, detects 4 kb spliced and 9 kb RNA (chain 1 ATAGTGCTTCCTGCT; chain 2 GTCATTGAGGCTGCG; fluorogenic labels; Latent HIV-1 qLDR Oligonucleotide Probe; (1)..(1) Fluorogenic probe moiety attachment position on probe sequence; (15)..(15) Fluorogenic probe moiety attachment position on probe sequence)", "values": [{"measurement": "detection efficiency", "setting": "[1]", "value": "comparable detection efficiency"}, {"measurement": "change of fluorescence level through activation time course", "setting": "HIV RNA of ACH-2 cells", "value": "marked increase"}, {"measurement": "detection of cellular HIV RNA in HIV+ HAART (latent) samples", "setting": "cellular HIV RNA", "value": "successfully detected"}, {"measurement": "detection of cellular HIV RNA in HIV- samples", "setting": "cellular HIV RNA", "value": "not in HIV—samples"}, {"measurement": "detection between latent and HIV+ non-HAART (active) samples", "setting": "cellular HIV RNA", "value": "differential detection"}]}
{"substance": "SEQ ID NO: 9/SEQ ID NO: 10: fluorogenic PNA probe pair SEQ ID NO: 9 (Ald-1) and 10 (Ind), tat-rev, detects spliced 2 kb HIV-1 RNA (chain 1 CTTTG; chain 2 TGGGT; PNA; fluorogenic labels; Latent HIV-1 qLDR Oligonucleotide Probe; (1)..(1) Fluorogenic probe moiety attachment position on probe sequence; (1)..(5) Peptide nucleic acid 5′ Ald-CTTTG-DMLys-DMLys- CONH2; (1)..(5) Peptide nucleic acid 3′ Ind-TGGGT-DMLys-DMLys- CONH2; (5)..(5) Fluorogenic probe moiety attachment position on probe sequence)", "values": [{"measurement": "detection efficiency", "setting": "[1]", "value": "comparable detection efficiency"}, {"measurement": "change of fluorescence level through activation time course", "setting": "HIV RNA of ACH-2 cells", "value": "relatively little increase"}, {"measurement": "detection of cellular HIV RNA in HIV+ HAART (latent) samples", "setting": "cellular HIV RNA", "value": "successfully detected"}, {"measurement": "detection of cellular HIV RNA in HIV- samples", "setting": "cellular HIV RNA", "value": "not in HIV—samples"}, {"measurement": "detection between latent and HIV+ non-HAART (active) samples", "setting": "cellular HIV RNA", "value": "differential detection"}]}
